Assay results taken from ChEMBL document CHEMBL1201862, “PubChem BioAssay data set” (2004).
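Results reflect a 48-hour exposure of cells in 96-well plates to compound at five concentrations. Abbreviation: GI50, concentration required for 50% inhibition of growth.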 Active and inactive are the calls of the source. Cut-off read from the data, not from the text of the source: active = GI50 up to about 1.1 µM and inactive = higher.

How the values were obtained:
Assay in all cases: NCI anticancer screen, dose series, 48 h
786-0 = system: 786-0
A498 = system: A498
A549 = system: A549
ACHN = system: ACHN
BT-549 = system: BT-549
CAKI-1 = system: CAKI-1
CCRF-CEM = system: CCRF-CEM
COLO 205 = system: COLO 205
DU-145 = system: DU-145
EKVX = system: EKVX
HCT-116 = system: HCT-116
HL-60 = system: HL-60
HOP-62 = system: HOP-62
HT-29 = system: HT-29
Hs-578T = system: Hs-578T
IGROV-1 = system: IGROV-1
K562 = system: K562
KM12 = system: KM12
LOX IMVI = system: LOX IMVI
MCF7 = system: MCF7
MDA-MB-231 = system: MDA-MB-231
MDA-MB-435 = system: MDA-MB-435
MDA-N = system: MDA-N
MOLT-4 = system: MOLT-4
Malme-3M = system: Malme-3M
NCI-H226 = system: NCI-H226
NCI-H23 = system: NCI-H23
NCI-H460 = system: NCI-H460
NCI-H522 = system: NCI-H522
NCI/ADR-RES = system: NCI/ADR-RES
OVCAR-3 = system: OVCAR-3
OVCAR-4 = system: OVCAR-4
OVCAR-5 = system: OVCAR-5
OVCAR-8 = system: OVCAR-8
PC-3 = system: PC-3
RPMI-8226 = system: RPMI-8226
RXF 393 = system: RXF 393
SF-268 = system: SF-268
SF-295 = system: SF-295
SF-539 = system: SF-539
SK-MEL-28 = system: SK-MEL-28
SK-MEL-5 = system: SK-MEL-5
SN12C = system: SN12C
SNB-19 = system: SNB-19
SNB-75 = system: SNB-75
SR = system: SR
SW-620 = system: SW-620
TK-10 = system: TK-10
U-251 = system: U-251
UACC-257 = system: UACC-257
UO-31 = system: UO-31
HCT-15 = system: HCT-15
HOP-92 = system: HOP-92
M14 = system: M14
SK-MEL-2 = system: SK-MEL-2
SK-OV-3 = system: SK-OV-3
T47D = system: T47D
HCC 2998 = system: HCC 2998
UACC-62 = system: UACC-62

Measured: GI50

CC(=O)OCC1OC(c2nc3ccccc3s2)=CC(OC(C)=O)C1OC(C)=O (centres undefined)
inactive: 786-0 > 100 µM | A498 > 100 µM | A549 > 100 µM | ACHN > 100 µM | BT-549 > 100 µM | CAKI-1 > 100 µM | CCRF-CEM > 100 µM | COLO 205 > 100 µM | DU-145 > 100 µM | EKVX > 100 µM | HCT-116 57.5 µM | HL-60 22.3 µM | HOP-62 > 100 µM | HT-29 > 100 µM | Hs-578T > 100 µM | IGROV-1 > 100 µM | K562 50.5 µM | KM12 > 100 µM | LOX IMVI > 100 µM | MCF7 > 100 µM | MDA-MB-231 > 100 µM | MDA-MB-435 > 100 µM | MDA-N > 100 µM | MOLT-4 > 10 µM | Malme-3M > 100 µM | NCI-H226 > 100 µM | NCI-H23 > 100 µM | NCI-H460 > 100 µM | NCI-H522 > 100 µM | NCI/ADR-RES > 100 µM | OVCAR-3 > 100 µM | OVCAR-4 > 100 µM | OVCAR-5 > 100 µM | OVCAR-8 > 100 µM | PC-3 > 100 µM | RPMI-8226 37.3 µM | RXF 393 78.3 µM | SF-268 43.6 µM | SF-295 > 100 µM | SF-539 > 100 µM | SK-MEL-28 > 100 µM | SK-MEL-5 > 100 µM | SN12C > 100 µM | SNB-19 > 100 µM | SNB-75 22.2 µM | SR 41.1 µM | SW-620 > 100 µM | TK-10 > 100 µM | U-251 89.9 µM | UACC-257 > 100 µM | UO-31 > 100 µM

COc1cc(S(=O)(=O)N/N=C/c2cc(Br)c(O)c(OC)c2)c(OC)cc1NC(C)=O
52.6 µM: HCT-15
inactive: 786-0 27 µM | A498 > 100 µM | A549 > 100 µM | ACHN 78.3 µM | BT-549 > 100 µM | CAKI-1 91 µM | CCRF-CEM 21.7 µM | COLO 205 23.4 µM | DU-145 85.9 µM | EKVX 55.5 µM | HCT-116 30.6 µM | HL-60 25 µM | HOP-62 > 100 µM | HOP-92 34.1 µM | HT-29 34 µM | IGROV-1 50.8 µM | K562 41.5 µM | KM12 > 100 µM | LOX IMVI 38.6 µM | M14 > 100 µM | MCF7 57.4 µM | MDA-MB-231 52.6 µM | MDA-MB-435 80.5 µM | MDA-N 83.6 µM | MOLT-4 42.9 µM | NCI-H226 > 100 µM | NCI-H23 > 100 µM | NCI/ADR-RES > 100 µM | OVCAR-3 92 µM | OVCAR-4 69.3 µM | OVCAR-5 > 100 µM | OVCAR-8 > 100 µM | PC-3 62.2 µM | RPMI-8226 47.2 µM | RXF 393 42.6 µM | SF-295 > 100 µM | SF-539 20.2 µM | SK-MEL-28 > 100 µM | SK-MEL-2 > 100 µM | SK-MEL-5 87.7 µM | SK-OV-3 > 100 µM | SN12C 73.8 µM | SNB-19 > 100 µM | SNB-75 > 100 µM | SR 80.2 µM | SW-620 35.1 µM | T47D 41.3 µM | TK-10 77.3 µM | U-251 > 100 µM | UACC-257 > 100 µM | UO-31 > 100 µM

O=C(NNC(=O)c1csc(NC(=S)NC2CCCCC2)n1)c1ccccc1
inactive: 786-0 12.7 µM | A498 38 µM | A549 15.1 µM | ACHN 11.4 µM | BT-549 17.3 µM | CAKI-1 18.6 µM | CCRF-CEM 3.61 µM | COLO 205 5.25 µM | DU-145 18.7 µM | EKVX 1.84 µM | HCC 2998 13.9 µM | HCT-116 2.7 µM | HOP-62 14 µM | HT-29 7.23 µM | IGROV-1 1.96 µM | KM12 8.13 µM | LOX IMVI 10.3 µM | M14 13.5 µM | MCF7 2.06 µM | MDA-MB-231 13.5 µM | MDA-MB-435 15.6 µM | MDA-N 13.9 µM | MOLT-4 4.2 µM | Malme-3M 15.5 µM | NCI-H226 7.24 µM | NCI-H23 16.7 µM | NCI-H522 11.7 µM | NCI/ADR-RES 4.85 µM | OVCAR-3 4.33 µM | OVCAR-4 3.34 µM | OVCAR-5 11.9 µM | OVCAR-8 6.52 µM | PC-3 7.82 µM | RPMI-8226 10 µM | SF-268 5.66 µM | SF-295 11 µM | SF-539 15 µM | SK-MEL-2 22.4 µM | SK-MEL-5 6.71 µM | SK-OV-3 12.1 µM | SN12C 5.97 µM | SNB-75 83.9 µM | SR 2.26 µM | SW-620 10.3 µM | T47D 3.37 µM | TK-10 22 µM | U-251 3.71 µM | UACC-257 7.96 µM | UACC-62 10.2 µM | UO-31 13.7 µM
2.74 µM: HCT-15
